Source: BindingDB's records for doi:10.1016/j.bmcl.2007.04.071 (Berlex Biosciences, 2007)

Molecular target: T1, 3-phosphoinositide-dependent protein kinase 1 (Homo sapiens, UniProt O15530)
T1 sequence (O15530 whole entry): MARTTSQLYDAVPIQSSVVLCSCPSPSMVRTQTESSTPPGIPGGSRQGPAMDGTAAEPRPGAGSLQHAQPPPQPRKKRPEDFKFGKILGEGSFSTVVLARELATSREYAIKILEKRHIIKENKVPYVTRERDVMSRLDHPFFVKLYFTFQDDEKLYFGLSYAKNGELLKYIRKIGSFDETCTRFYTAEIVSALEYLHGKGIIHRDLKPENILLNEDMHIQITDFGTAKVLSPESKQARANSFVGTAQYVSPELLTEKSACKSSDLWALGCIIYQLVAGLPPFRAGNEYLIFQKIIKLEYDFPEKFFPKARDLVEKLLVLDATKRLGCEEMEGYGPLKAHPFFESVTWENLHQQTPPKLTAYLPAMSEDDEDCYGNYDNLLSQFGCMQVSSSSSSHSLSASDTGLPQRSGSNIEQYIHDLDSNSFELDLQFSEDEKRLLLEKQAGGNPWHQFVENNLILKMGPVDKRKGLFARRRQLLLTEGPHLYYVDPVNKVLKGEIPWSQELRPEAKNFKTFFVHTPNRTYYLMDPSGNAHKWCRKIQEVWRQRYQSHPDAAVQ
Test: PDK1-mediated AKT2 Activation Assay (cAKT2 33P-SPA)
Conditions: pH 7.2; 22 °C

- IC50: 200 nM
SMILES: O=C1Nc2ccc(-c3nnn[nH]3)cc2C1=Cc1ccc[nH]1 [(3Z)-3-(1H-pyrrol-2-ylmethylidene)-5-(1H-1,2,3,4-tetrazol-5-yl)-2,3-dihydro-1H-indol-2-one]
